Here are results for one compound from patent publication US20140051729A1, “COMPOSITIONS AND METHODS FOR TREATING DEGENERATIVE MUSCLE CONDITIONS” (University of Washington, priority 2011, published 2014).

The test system of one test is mdx mice. Put plainly: EDL muscle myography in mdx mice. In kind it is in vivo, mouse. The note with it: THI IP twice-daily two weeks. The protocol: The effect of THI administration on muscle function and recovery in mdx mice was analyzed. The mice were injected intraperitoneally with THI in PBS or vehicle alone (PBS) twice-daily for two weeks. Total amount of THI delivered per day was 75 ug. Extensor digitorum longus (EDL) muscles were excised from the mice and equilibrated in ringer's solution with 95% O2/5% CO2 for a minimum of 15 minutes prior to stimulation. Myography was conducted using a DMT 820S myograph and data was recorded using PowerLab 4/30 acquisition system with LabChart Pro software v7.3.1 (both from ADI instruments, Colorado Springs, Colo.). Stimulations were conducted with a Grass Instrument S88X system (Grass Technologies, West Warwick, R.I.). Muscles were stimulated to establish optimal fiber length (Lf) and voltage at which maximum tetanic force was measured at 120 Hz within a 450 ms duration.
Specific force was calculated as previously described in Gregorevic P. et al. (Gregorevic P. et al., Muscle Nerve. 2004 September; 30(3):295-304, PMID#15318340) by normalizing to whole muscle cross-sectional area (CSA). CSA is the quotient of […] muscle mass over the optimal muscle length (Lo) which is defined as the product of muscle fiber length (Lf) with the fiber length ratio (0.44 for EDL) and mammalian muscle density (1.06).
Muscle recovery was measured after muscle was fatigued with stimulation over 6 minutes. […] Recovery was determined by examining muscle force at 5, 10, and 15 minutes after stimulation. […] Therefore, the administration of THI improved muscle recovery and function in dystrophic mice.
The effect of THI-oxime administration on muscle function and recovery in mdx mice was analyzed. The mice were injected intraperitoneally with THI-oxime (n=3) or PBS vehicle alone (n=4) twice-daily for two weeks and then analyzed between 1-4 days following the final day of injection. Total amount of THI-oxime delivered per day was 75 ug. Prior to euthanasia, the animals were anesthetized with 0.5 mg/g weight avertin diluted in PBS. EDL muscles were excised from the mice and equilibrated in ringer's solution (120 mM NaCl, 4.7 mM KCl, 3.15 mM MgCl2, 1.3 mM NaH2PO4, 25 mM NaHCO3, 11 mM Glucose, 1.25 mM CaCl2, pH 7.2) with 95% O2/5% CO2 for a minimum of 15 minutes prior to stimulation. All functional experiments were carried out with buffer solutions at 25° C. under constant oxygenation. Myography was conducted using a DMT 820S myograph and data was recorded using PowerLab 4/30 acquisition system with LabChart Pro software v7.3.1 (both from ADI instruments, Colorado Springs, Colo.). […] Muscles were stimulated to establish optimal fiber length (Lf) and voltage at which maximum tetanic force was measured at 120 Hz within a 450 ms duration. […]

The subject of test [1] is dystrophic flies (w; +/+; Dys^det1/Dys^det1). Put plainly: Myofibril analysis of muscle wasting in dystrophic flies fed S1P promoting agents. In kind it is in vivo, Drosophila. The following applies: 217 μM in feed, three feeding cycles, 10-day old flies, three days after last feeding. How it is done:
The effect of THI, a derivative of THI ((E)-1-(4-((1R,2S,3R)-1,2,3,4-tetrahydroxybutyl)-1H-imidazol-2-yl)-ethanone oxime) (“THI-oxime”), and a sphingosine analog (FTY720) on muscle wasting in dystrophic Drosopila flies was observed. Before feeding, 4 day old dystrophic flies (genotype: w; +/+; Dys^det1/Dys^det1) were placed in empty vials and starved for 6 hours. The flies were then provided access to one of a solution of 0.05 mg/mL (217 μM) 2-Acetyl-4(5)-tetrahydroxybutyl Imidazole (THI), or 217 μM FTY720, or 217 μM THI-oxime, in 5% light corn syrup in water for 16-18 hrs. After feeding, the flies were placed in new yeasted vials for 6-7 hrs. Flies were then transferred to empty vials with access to a 217 μM solution of THI, FTY720 or THI-oxime in a 5% light corn syrup in water for 16-18 hrs. This feeding cycle was repeated for a third time. After feeding for three cycles, the flies were placed in new yeasted vials. The 7-day old flies that had been administered the THI-oxime were analyzed immediately after the last feeding. The flies that has been administered THI and FTY720 were analyzed as 10-day old flies, three days after the last feeding with THI and FTY720.
Myofibril immunochemistry analysis was performed as disclosed herein. For each treatment group, 5 flies were analyzed, and 3 muscles per fly and 2 myofibrils per muscle were analyzed. Two tailed Student's t test was used to evaluate significance.
Flies were dipped in 95% EtOH and then dissected in 1×PBS (pH 7.4). Heads and abdomens were removed, and the thoraxes opened. Samples were stained using a modified ovary staining protocol 3. Samples were then fixed in 5% paraformaldehyde (Electron Microscopy Sciences) for 1 hour, rinsed in PBT (PBS/0.2% Triton X-100 v/v) 4 times, and then blocked for 1 hour in PBTB (PBT, 0.4% BSA w/v, 5% Normal Goat Serum v/v) at room temperature. […] For each genotype, 4-5 flies were analyzed, and 6-7 muscles per fly were analyzed.

Take `CC(=O)c1ncc([C@@H](O)[C@H](O)[C@H](O)CO)[nH]1` [THI, 1-[5-[(1R,2S,3R)-1,2,3,4-tetrahydroxybutyl]-1H-imidazol-2-yl]-ethanone]: the “maximum specific force of EDL muscle” value with mdx mice (75 ug per day, vehicle 95.45) worked out at 134.29 KN/m^2. Further, in the test on mdx mice (vs vehicle), the “muscle fatigue with stimulation over 6 minutes” value is listed as “fatigued at similar rates”; the “muscle recovery (force at 5, 10 and 15 minutes after stimulation)” value is listed as “improved recovery”. Moreover, the wild-type myofibrils result in test [1] is “approximately 67%”.
